This is an account of results in US11046699B2, “Pyrazolo-pyrimidin-amino-cycloalkyl compounds and their therapeutic uses” (RAPT THERAPEUTICS, INC., priority 2018, dated 2021).

The target of this assay is GCN2 (Homo sapiens, UniProt Q9P2K8). In words: GCN2 enzymatic endpoint assay: phosphorylation of GFP-eIF2α measured by TR-FRET (Lanthascreen). It is filed as biochemical. Conditions: tested as described in Example 77; compound and/or hydrochloride, dihydrochloride or trifluoroacetic acid salt; read-out: IC 50 Activity. An outline of the steps:
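Kinase activity is measured as phosphorylation of GFP-labelled eIF2α (80 nM) with ATP at 2 μM. Incubation runs 90 minutes at room temperature before EDTA quench and terbium-antibody detection.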
For orientation: TR-FRET usually uses a lanthanide donor and a delayed reading to cut background.

GCN2, sequence (Q9P2K8 whole entry): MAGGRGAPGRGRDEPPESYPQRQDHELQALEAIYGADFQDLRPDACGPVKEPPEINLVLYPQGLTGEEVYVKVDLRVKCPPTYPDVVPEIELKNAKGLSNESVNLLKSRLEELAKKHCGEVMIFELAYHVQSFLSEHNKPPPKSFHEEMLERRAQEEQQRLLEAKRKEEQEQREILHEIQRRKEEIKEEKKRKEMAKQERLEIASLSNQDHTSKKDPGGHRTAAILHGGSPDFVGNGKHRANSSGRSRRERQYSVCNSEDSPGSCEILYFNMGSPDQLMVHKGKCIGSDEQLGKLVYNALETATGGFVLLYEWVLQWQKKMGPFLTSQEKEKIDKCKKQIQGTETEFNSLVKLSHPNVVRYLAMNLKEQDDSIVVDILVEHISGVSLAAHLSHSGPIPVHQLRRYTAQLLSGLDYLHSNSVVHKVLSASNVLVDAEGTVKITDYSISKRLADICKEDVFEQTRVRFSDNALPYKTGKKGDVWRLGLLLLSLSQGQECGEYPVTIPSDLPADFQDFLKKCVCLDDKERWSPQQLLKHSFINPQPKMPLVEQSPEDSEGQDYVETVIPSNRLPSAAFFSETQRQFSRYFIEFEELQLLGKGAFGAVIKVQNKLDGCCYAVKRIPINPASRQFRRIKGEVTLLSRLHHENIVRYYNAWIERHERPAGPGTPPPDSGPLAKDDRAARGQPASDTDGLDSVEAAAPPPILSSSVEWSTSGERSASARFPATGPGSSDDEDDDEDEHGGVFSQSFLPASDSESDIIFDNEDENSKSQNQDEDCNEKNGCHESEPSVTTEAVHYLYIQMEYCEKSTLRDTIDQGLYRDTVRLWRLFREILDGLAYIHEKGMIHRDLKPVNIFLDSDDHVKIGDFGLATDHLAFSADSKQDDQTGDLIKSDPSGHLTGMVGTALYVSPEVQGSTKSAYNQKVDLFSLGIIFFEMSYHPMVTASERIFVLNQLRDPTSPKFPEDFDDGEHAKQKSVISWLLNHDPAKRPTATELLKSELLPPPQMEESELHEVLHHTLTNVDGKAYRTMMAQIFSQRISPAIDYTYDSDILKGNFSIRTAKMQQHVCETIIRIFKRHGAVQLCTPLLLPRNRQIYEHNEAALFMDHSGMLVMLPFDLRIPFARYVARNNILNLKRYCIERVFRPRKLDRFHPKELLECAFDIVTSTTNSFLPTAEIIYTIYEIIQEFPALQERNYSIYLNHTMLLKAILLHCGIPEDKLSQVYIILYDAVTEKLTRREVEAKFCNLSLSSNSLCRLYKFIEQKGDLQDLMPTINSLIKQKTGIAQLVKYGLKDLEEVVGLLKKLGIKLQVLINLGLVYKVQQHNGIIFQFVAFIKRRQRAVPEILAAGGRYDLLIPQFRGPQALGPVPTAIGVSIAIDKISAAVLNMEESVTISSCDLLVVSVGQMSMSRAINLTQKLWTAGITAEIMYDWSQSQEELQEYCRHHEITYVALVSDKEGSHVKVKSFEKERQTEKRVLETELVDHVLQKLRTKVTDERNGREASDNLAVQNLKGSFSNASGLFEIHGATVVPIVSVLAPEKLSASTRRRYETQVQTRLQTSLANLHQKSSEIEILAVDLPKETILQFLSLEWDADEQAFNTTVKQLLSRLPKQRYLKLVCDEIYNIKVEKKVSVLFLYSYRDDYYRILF

As for `Cc1nnc(-c2ccc(-n3nc(Br)c4cnc(NC5CC(S(C)(=O)=O)C5)nc43)cc2)s1` (centres unmarked) [3-bromo-N-(3-methylsulfonylcyclobutyl)-1-[4-(5-methyl-1,3,4-thiadiazol-2-yl)phenyl] pyrazolo[3,4-d]pyrimidin-6-amine], the IC50 lay in the range of 25 to 200 nM.

As for `O=S(=O)([C@@H]1CC[C@@H](Nc2ncc3c(Br)nn(-c4ccc5ncccc5c4)c3n2)C1)N1CCOCC1` [3-bromo-N-((1R,3R)-3-(morpholinosulfonyl)cyclopentyl)-1-(quinolin-6-yl)-1H-pyrazolo [3,4-d]pyrimidin-6-amine], the IC50 is 200 to 500 nM. As to `Cc1nnc(-c2ccc(-n3nc(Br)c4cnc(NC5CCN(CC(F)F)C5)nc43)cc2)s1` (centres unmarked) [3-bromo-N-[1-(2,2-difluoroethyl)pyrrolidin-3-yl]-1-[4-(5-methyl-1,3,4-thiadiazol-2-yl)phenyl] pyrazolo[3,4-d]pyrimidin-6-amine], the IC50 is 25 to 200 nM. The result for `Cc1nnc(-c2ccc(-n3nc(Br)c4cnc(N[C@@H]5CCC(S(C)(=O)=O)C5)nc43)cc2)s1` (stereo partly drawn) [3-bromo-N-[(1R)-3-methylsulfonylcyclo-pentyl]-1-[4-(5-methyl-1,3,4-thiadiazol-2-yl)phenyl]pyrazolo[3,4-d]pyrimidin-6-amine] reads 25 to 200 nM; that for `Cc1nnc(-c2ccc(-n3nc(Br)c4cnc(N[C@@H]5CCC[C@@H](P(C)(C)=O)C5)nc43)cc2)s1` [3-bromo-N-[(1R,3R)-3-dimethylphosphoryl-cyclohexyl]-1-[4-(5-methyl-1,3,4-thiadiazol-2-yl)phenyl]pyrazolo[3,4-d]pyrimidin-6-amine], 25 to 200 nM; that for `Cc1ccc2cc(-n3nc(Br)c4cnc(N[C@@H]5CC[C@@H](P(C)(C)=O)C5)nc43)cc(F)c2n1` [3-bromo-N-[(1R,3R)-3-dimethylphosphoryl-cyclopentyl]-1-(8-fluoro-2-methyl-6-quinolyl) pyrazolo[3,4-d]pyrimidin-6-amine], 25 to 200 nM. For `CP(C)(=O)[C@@H]1CC[C@@H](Nc2ncc3c(Br)nn(-c4cc(C5CCNC5)c5ncccc5c4)c3n2)C1` (stereo partly drawn) [3-bromo-N-[(1R,3R)-3-dimethylphosphoryl-cyclopentyl]-1-(8-pyrrolidin-3-yl-6-quinolyl) pyrazolo[3,4-d]pyrimidin-6-amine], the IC50 is 25 to 200 nM. `Cc1nnc(-c2ccc(-n3nc(Br)c4cnc(N[C@@H]5CC[C@@H](P(C)(C)=O)C5)nc43)cc2CCS(C)(=O)=O)s1` [3-bromo-N-[(1R,3R)-3-dimethylphosphoryl-cyclopentyl]-1-[3-(2-methylsulfonylethyl)-4-(5-methyl-1,3,4-thiadiazol-2-yl)phenyl] pyrazolo[3,4-d]pyrimidin-6-amine]: the IC50 is 25 to 200 nM.

For `Cc1nnc(-c2ccc(-n3nc(Br)c4cnc(N[C@@H]5CC[C@H](P(C)(C)=O)C5)nc43)cc2)s1` [3-bromo-N-[(1R,3S)-3-dimethylphosphoryl-cyclopentyl]-1-[4-(5-methyl-1,3,4-thiadiazol-2-yl)phenyl]pyrazolo[3,4-d]pyrimidin-6-amine], the IC50 was 25 to 200 nM. In the case of `Cc1nc2c(F)cc(-n3nc(Br)c4cnc(N[C@@H]5CC[C@@H](C(=O)N6CCN(C)C(=O)C6)C5)nc43)cc2cc1F` [4-((1R,3R)-3-((3-bromo-1-(3,8-difluoro-2-methylquinolin-6-yl)-1H-pyrazolo[3,4-d]pyrimidin-6-yl)amino)cyclopentane-1-carbonyl)-1-methylpiperazin-2-one] it was 25 to 200 nM; in that of `Cc1nnc(-c2ccc(-n3nc(Br)c4cnc(N[C@@H]5CC[C@@H](C(=O)N6CCN(C)C(=O)C6)C5)nc43)cc2F)o1` [4-((1R,3R)-3-((3-bromo-1-(3-fluoro-4-(5-methyl-1,3,4-oxadiazol-2-yl)phenyl)-1H-pyrazolo[3,4-d]pyrimidin-6-yl)amino)cyclo-pentane-1-carbonyl)-1-methylpiperazin-2-one], 25 to 200 nM.
